In patent publication US7485721B2, “Substituted porphyrins” (Duke University, priority 2002, dated 2009):

Columns and labels:
[1] = equilibrium H3P^5+ = H2P^4+ + H^+; cited from earlier work
[2] = Stability of reduced Mn(II) porphyrins in excess ascorbic acid; conditions: aerobic, within 125 min; 6 μM, 70-fold excess of ascorbic acid, pH 7.8, 0.1 M tris buffer; reduced Mn(II) form
Description: Therefore, we also examined the behavior of the reduced and more biologically relevant Mn^IIT(alkyl)-2-PyP^4+ compounds. We compared the methyl, n-hexyl and n-octyl derivatives (6 μM) aerobically and anaerobically in the presence of a 70-fold excess of ascorbic acid (pH 7.8, 0.1 M tris buffer) and in the presence and absence of a 150-fold excess of EDTA.

[3] = Thin-layer chromatography, retention factor Rf as lipophilicity; assay type: physicochemical; conditions: silica gel TLC plates, 1:1:8 KNO3-saturated H2O:H2O:acetonitrile; for Rf (compound path/solvent path): Mn(III) complex; for Rf (compound path/solvent path), metal-free porphyrin (in parentheses): corresponding metal-free porphyrin H2T(alkyl)-2-PyP^4+
Source text: Thin-layer chromatography. All ligands and their Mn(III) complexes were chromatographed on silica gel TLC plates using 1:1:8 KNO3-saturated H2O:H2O: acetonitrile. The atropoisomers could not be separated for the methyl^19 and ethyl analogues,^24 they begin to separate for the n-propyl and n-butyl species and were clearly resolved with the n-hexyl and n-octyl compounds.
Thin Layer Chromatography. The increase in the length of the alkyl chains is accompanied by an increase in the lipophilicity of the compounds as indicated by the increase in the retention factor Rf (porphyrin path/solvent path) (Table 1, FIG. 2). […] As the chains lengthen, their contribution to the overall lipophilicity increases, and eventually the n-octyl porphyrin and its Mn(III) complex are more alike in Rf than are methyl analogues.

[4] = Cyclic voltammetry, metal-centered redox potential E1/2 of Mn(III)/Mn(II) couple; assay type: physicochemical; conditions: 0.05 M phosphate buffer (pH 7.8, 0.1 M NaCl)
Description: Electrochemistry. Measurements were performed on a CH Instruments Model 600 Voltammetric Analyzer.^3.4 A three-electrode system in a small volume cell (0.5 mL to 3 mL), with a 3 mm-diameter glassy carbon button working electrode (Bioanalytical Systems), plus the Ag/AgCl reference and Pt auxilliary electrodes was used. Solutions contained 0.05 M phosphate buffer, pH 7.8, 0.1 M NaCl, and […] metalloporphyrin. The scan rates were 0.01-0.5 V/s, typically 0.1 V/s. The potentials were standardized against the potassium ferrocyanide/ferricyanide^20 and/or against Mn^IIITE-2-PyP^5+. All voltammograms were reversible.
Electrochemistry. […] The metal-centered redox potentials, E1/2 are in Table 1 and the representative voltammograms of the Mn^III/IITE-2-PyP^5+/4+ and Mn^III/IITnHex-2-PyP^5+/4+ compounds are shown in the Supporting Material, FIG. 6. Both lipophilicity (FIG. 2B) and E1/2 (FIG. 3B, insert) increase exponentially with the number of CH2 groups in the alkyl chains. Consequently, the increase in E1/2 is a linear function of Rf (FIG. 3B).

[5] = Mn loss from Mn porphyrins in 12 M HCl; assay type: physicochemical
Description: The half-lives for the acid and anion-catalyzed removal of zinc from Zn N-methylated derivatives^35 in 1.0 M HNO3 were 89 s for the meta, 165 s for the para, and 19 hours for the ortho ZnTM-2-PyP^4+. […] In addition to porphyrin ring distortion,^29-32 the steric hindrance and solvation effects imposed by the progressively longer alkyl chains may also contribute to the differences in metaladon/demetalation behavior.

[6] = Spectrophotometric proton dissociation constant pKa2; assay type: physicochemical; conditions: of the metal-free porphyrin H2T(alkyl)-2-PyP^4+; 25° C., ionic strength 0.10 (NaNO3/NaOH)
Description: Uv/vis spectroscopy. The uv/vis spectra were taken on a Shimadzu UV-2501 PC spectrophotometer at 25° C. The proton dissociation constants (pKa2), were determined spectrophotometrically at 25° C., at an ionic strength of 0.1 M (NaOH/NaNO3), as previously described.^4
The proton dissociation constants, Ka2 and Ka3 are defined as follows: H2P^4+ ? HP^3++H^+Ka2 [1] H3P^5+ ? H2P^4++H^+ Ka3 [2] As the alkyl chains lengthen the porphyrins become less hydrated and the separation of charges (eq) becomes less favorable, ie. pKa2 increases (FIG. 3 insert).

[7] = stroke, diabetes, sickle cell disease, cancer/radiation; cited from earlier work
[8] = system: SOD-deficient Escherchia coli; conditions: aerobic conditions; cited from earlier work
[9] = Catalysis of O2^− dismutation, cytochrome c assay (xanthine/xanthine oxidase); assay type: biochemical; conditions: 0.05 M phosphate buffer, pH 7.8, (25 ± 1) ° C.
Source text: Catalysis of O2^− dismutation. We have previously shown that the O2^− /cytochrome c reduction assay gives the same catalytic rate constants as does pulse radiolysis for Mn^IIITE-2-PyP^5+, {Mn^IIIBVDME}2, {Mn^IIIBV}2 and MnCl2.^21 Therefore the convenient cytochrome c assay was used to characterize the series of Mn(III) N-alkylpyridylporphyrins. The xanthine/xanthine oxidase reaction was the source of O2^− and ferricytochrome c was used as the indicating scavenger for O2^−.^22 The reduction of cytochrome c was followed at 550 nm. Assays were conducted at (25±1) ° C., in 0.05 M phosphate buffer, pH 7.8, 0.1 mM EDTA, in the presence and absence of 15 μg/mL of catalase. Rate constants for the reaction of metalloporphyrins with O2′^− were based upon competition with 10 μM cytochrome c, kcyt c=2.6×10^5 M^−1 s^−1 as described elsewhere.^21 The O2^− was produced at the rate of 1.2 μM per minute. Any possible interference through inhibition of the xanthine/xanthine oxidase reaction by the test compounds was examined by following the rate of urate accumulation at 295 nm in the absence of cytochrome c. No reoxidation of cytochrome c by the metalloporphyrins was observed
Catalysis of O2^− dismutation. […] All of the manganese compounds are potent catalysts of O2^− dismutation with log kcat between 7.79 and 7.25.

[10] = 1.0 M HNO3, within a week; cited from earlier work
[11] = kcat=kred=kox; cited from earlier work

Row | degradation of Mn(II) porphyrin [2] | Rf (compound path/solvent path) [3] | Rf (compound path/solvent path), metal-free porphyrin (in parentheses) [3] | E1/2 [4] | pKa2 [6] | log kcat [9] | Molecule | also measured
1 | – | – | – | – | – | – | C[n+]1cccc(-c2c3nc(c(-c4ccc[n+](C)c4)c4ccc([nH]4)c(-c4ccc[n+](C)c4)c4nc(c(-c5ccc[n+](C)c5)c5ccc2[nH]5)C=C4)C=C3)c1 [H2TM-3-PyP^4+] | pKa3 [1]: 1.8
2 | – | – | – | – | – | – | C[n+]1ccc(-c2c3nc(c(-c4cc[n+](C)cc4)c4ccc([nH]4)c(-c4cc[n+](C)cc4)c4nc(c(-c5cc[n+](C)cc5)c5ccc2[nH]5)C=C4)C=C3)cc1 [H2TM-4-PyP^4+] | pKa3 [1]: 1.4
3 | – | 0.33 | 0.46 | +254 mV vs NHE | 11.7 | 7.25 | CCCC[n+]1ccccc1-c1c2nc(c(-c3cccc[n+]3CCCC)c3ccc([nH]3)c(-c3cccc[n+]3CCCC)c3nc(c(-c4cccc[n+]4CCCC)c4ccc1[nH]4)C=C3)C=C2.[Mn+3] [Mn^IIITnBut-2-PyP^5+] | –
4 | none | 0.57 | 0.63 | +314 mV vs NHE | 12.2 | 7.48 | CCCCCC[n+]1ccccc1-c1c2nc(c(-c3cccc[n+]3CCCCCC)c3ccc([nH]3)c(-c3cccc[n+]3CCCCCC)c3nc(c(-c4cccc[n+]4CCCCCC)c4ccc1[nH]4)C=C3)C=C2.[Mn+3] [Mn^IIITnHex-2-PyP^5+] | spectral change (Mn loss) ([5]; solid dissolved in 12 M HCl, 3 months): the spectra did not change within 3 months
5 | none | 0.80 | 0.86 | +367 mV vs NHE | 13.2 | 7.71 | CCCCCCCC[n+]1ccccc1-c1c2nc(c(-c3cccc[n+]3CCCCCCCC)c3ccc([nH]3)c(-c3cccc[n+]3CCCCCCCC)c3nc(c(-c4cccc[n+]4CCCCCCCC)c4ccc1[nH]4)C=C3)C=C2.[Mn+3] [Mn^IIITnOct-2-PyP^5+] | –
6 | – | – | – | – | – | – | CCCCCC[n+]1ccccc1-c1c2nc(c(-c3cccc[n+]3CCCCCC)c3ccc([nH]3)c(-c3cccc[n+]3CCCCCC)c3nc(c(-c4cccc[n+]4CCCCCC)c4ccc1[nH]4)C=C3)C=C2.[Zn+2] [ZnTnHex-2-PyP^4+] | zinc loss [10]: No indication of zinc loss was found within a week
7 | – | – | – | – | – | – | CuZn—SOD: CuZn superoxide dismutase enzyme | kcat [11]: 2e+09 M⁻¹ s⁻¹

Row | Molecule | degradation of Mn(II) porphyrin [2] | Rf (compound path/solvent path) [3] | Rf (compound path/solvent path), metal-free porphyrin (in parentheses) [3] | E1/2 [4] | pKa2 [6] | log kcat [9] | also measured
8 | C[n+]1ccccc1-c1c2nc(c(-c3cccc[n+]3C)c3ccc([nH]3)c(-c3cccc[n+]3C)c3nc(c(-c4cccc[n+]4C)c4ccc1[nH]4)C=C3)C=C2.[Mn+3] [Mn^IIITM-2-PyP^5+, Mn(III) meso tetrakis(N-methylpyridinium-2-yl)porphyrin] | −40% | 0.09 | 0.13 | +220 mV vs NHE | 10.9 | 7.79 | Mn lost ([5]; 12 M HCl, within a month): over 50%; protection in rodent models of oxidative stress [7]: offer protection in rodent models of oxidative stress; growth of SOD-deficient E. coli [8]: allow SOD-deficient Escherchia coli to grow under aerobic conditions
9 | meso tetrakis(N-ethylpyridinium-2-yl)porphyrins [Mn^IIITE-2-PyP^5+] | – | 0.13 | 0.21 | +228 mV vs NHE | 10.9 | 7.76 | protection in rodent models of oxidative stress [7]: offer protection in rodent models of oxidative stress; growth of SOD-deficient E. coli [8]: allow SOD-deficient Escherchia coli to grow under aerobic conditions
